Experiments:
[1] = test system: MHC class I molecules of T1 cells (human lymphoma cell line 174×CEM.); test: Effect on expression of MHC class I from T1 cells (flow cytometry, MFI); format: cell-based; conditions: 3 days culture
In short: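 EC20 is the compound level that lowers MHC class I MFI by 20% relative to compound-free cultures. Read-out was flow cytometry after FITC W6/32 staining.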

[2] = test system: MHC class I molecules of human peripheral blood-derived dendritic cells; test: Effect on expression of MHC class I molecules from human peripheral blood-derived dendritic cells; format: cell-based; conditions: dendritic cells matured with TNF-α, 3 days; read-out: EC50 (reduction of 50% of the number of cells wherein MHC class I molecules were highly expressed)
Text: Effect on Expression of MHC Class I Molecules from Human Peripheral Blood-Derived Dendritic Cells
Monocytes were isolated from human peripheral blood by the specific gravity centrifugation method. Thereafter, using mouse anti-human CD14 antibody-binding microbeads and a magnetic cell separation system (Miltenyi Biotec), CD14 positive cells were separated from the peripheral blood monocytes. The separated CD14 positive cells were suspended in an RPMI 1640 medium containing 10% FBS, and the suspension was then inoculated in a 6-well plate, resulting in a concentration of 1.0×10^6 cells/well. It was cultured at 37° C. for 20 minutes in an incubator containing 5% carbon dioxide. […] Thereafter, RPMI 1640 containing a 500 U/ml human recombinant […] (hereinafter referred to as GM-CSF; Anapure Bioscientific), 50 ng/ml human recombinant interleukin 4 (hereinafter referred to as IL-4; Pepro Tech), and 10% FBS, was added to the remaining suspension at a concentration of 2 ml/well. The obtained mixture was then cultured at 37° C. in an incubator containing 5% carbon dioxide. When adhesive CD14 positive cells are cultured in the presence of GM-CSF and IL-4, the CD14 positive cells were differentiated into non-adhesive immature dendritic cells. After the cells had been cultured for 7 days, non-adhesive cells were recovered to obtain immature dendritic cells. Using a 6-well plate, the immature dendritic cells (2.5×10^5 cells/well) were cultured in RPMI 1640 containing a 100 U/ml human recombinant tumor necrosis factor-α (hereinafter referred to as TNF-a; Pepro Tech), a test compound, and 10% FBS, at 37° C. for 3 days in an incubator containing 5% carbon dioxide. The dendritic cells became mature as a result of the presence of TNF-α, but in the present test, a test compound was allowed to simultaneously act on the cells. The mature dendritic cells were then stained with fluoroisothiocyanate-labeled mouse anti-human MHC class I monoclonal antibody (an antibody generated from the cell line W6/32 (ATCC No. CRL 1991)). The rate of the number of cells wherein MHC class I molecules were highly expressed to the total number of cells was measured by flow cytometry. The reduction rate of the number of cells wherein MHC class I molecules were highly expressed was calculated using the following formula (2), and the concentrations of test compounds necessary for reduction of 50% (EC50 values) were obtained.
[formula] • Eexp: (The number of cells, wherein MHC class I molecules are highly expressed, in cultured cells containing test compound)/(the total number of cells) • Cexp: (The number of cells, wherein MHC class I molecules are highly expressed, in cultured cells containing no test compounds)/(the total number of cells)

[3] = test system: human dendritic cells cultured with human allogenic T cells; test: Effect on the ability of human dendritic cells to induce the growth of allogenic T cells ([3H]-thymidine incorporation); format: cell-based; conditions: Homo sapiens; dendritic cells treated 3 days with test compound and TNF-α, then 5 days with allogenic T cells; read-out: IC50 (inhibition of DNA synthesis of lymphocytes)
Description: Effect on the Ability of Human Dendritic Cells to Induce the Growth of Allogenic T Cells
Immature dendritic cells were cultured with a test compound and TNF-α for 3 days by the same method as that described in Test Example 2. The obtained dendritic cells (2.5×10^3 cells/50 μl/well) were cultured together with human allogenic T cells (2.0×10^5 cells/150 μl/well) in a 96-well flat bottom plate at 37° C. for 5 days in an incubator containing 5% carbon dioxide. Thereafter, [^3H]-thymidine (Amersham Pharmacia Biotech) was added thereto at an amount of 1 μCi/10 μl/well, 16 hours before completion of the culture. After completion of the culture, cells were captured on a glass filter using a cell harvester (Skatron Instrument) and then dried. Thereafter, Scintillator ACS-II (Amersham Pharmacia Biotech) was added thereto, and the radioactivity of [^3H]-thymidine incorporated into the cells were then measured using a liquid scintillation counter. The inhibition rate of the DNA synthesis of lymphocytes was calculated using the following formula (3). Thereafter, the concentration of a test compound necessary for inhibition of 50% (IC50 value) was obtained.
[formula] • Eexp: The amount of [^3H]-thymidine incorporated into cultured cells containing test compound • Cexp: The amount of [^3H]-thymidine incorporated into cultured cells containing no test compounds

[4] = test system: BALB/c mice; test: Effect on mouse plaque forming cells (PFCs) to sheep erythrocytes; format: in vivo; conditions: Intraperitoneal, 25 mg/kg/single administration, twice a day for 4 days
Description: Effect on Mouse Plaque Forming Cells (PFCs)
Sheep erythrocytes (Nippon Seibutsu Zairyo Center, Co., Ltd.) were intraperitoneally administered to each of BALB/c mice (Charles River Japan, Inc.; female; 8-week-old) at an amount of 1.0×10^8 cells. Thereafter, a test compound was administered thereto twice a day for 4 days after the first administration (only once on the first day) (n=4). On the day subsequent to completion of the administration of the test compound, splenic cells were prepared from the mouse, and the number of PFCs to the sheep erythrocytes was counted by the method of Cunninham (Cunninham, A. J. et al., Immunology, vol. 14, p. 599 (1968)). The number of PFCs per number of splenic cells of 1.0×10^6 was obtained. The reduction rate of the number of PFC in the mouse to which the test compound had been administered, to the number of PFCs in a control mouse to which the test compound had not been administered but only a solvent had been administered, was calculated using the following formula (4).
[formula] • Eexp: The number of PFCs per 1×10^6 splenic cells of mouse to which test compound was administered • Cexp: The number of PFCs per 1×10^6 splenic cells of mouse to which solvent was administered

[5] = test system: BDF1 mice; test: Effect on graft versus host (GVH) reaction, spleen weight measurement method; format: in vivo, mouse; conditions: subcutaneous, twice a day for 7 days
Description: Effect on Graft Versus Host (GVH) Reaction
The effect of the compound on the GVH reaction was determined in accordance with the spleen weight measurement method of Simonsen et al. (Simonsen et al., Annals of the New York Academy of Sciences, p. 73 (1978)). Splenic cells were prepared from C57BL/6 mice (Charles River Japan, Inc.; female; 10-week-old), and the cells (5.0×10^6 cells) were transferred into the abdominal cavity of each of BDF1 mice (Charles River Japan; […]). From the day of transferring of the above cells, the test compound having each diluted concentration or a 5% glucose solution used as a solvent was subcutaneously administered to the BDF1 mice twice a day for 7 consecutive days. Eight days after the transferring of the above cells, the spleen weight of each of the BDF1 mice was measured. The reduction rate of the spleen weight was calculated using the following formula (6). The amount of the test compound necessary for reduction of 50% (ED50 value) was obtained.
[formula] • Eexp: Spleen weight of mouse to which test compound was administered • Cexp: Spleen weight of mouse to which solvent was administered

Row | SMILES | EC20 (concentration necessary for suppressing 20% of the expression level of MHC class I molecules) [1] [µM] | EC50 [2] [µM] | IC50 [3] [µM] | Reduction rate (%) of number of PFCs [4] [%] | Inhibition rate (%) (reduction rate of the spleen weight) ([5]; 25 × 2 mg/kg/single administration) | Inhibition rate (%) (reduction rate of the spleen weight) ([5]; 50 × 2 mg/kg/single administration)
1 | COc1ccc(-c2ccnc3nc(NC(=O)N[C@H]4CC[C@H](O)CC4)nn23)cc1 [Example 037] | 0.2 | 0.2 | 1.36 | 31.2 | – | –
2 | COc1ccc(-c2ccnc3nc(NC(=O)NCc4cccnc4)nn23)cc1 [Example 039] | 0.3 | 0.54 | 1.52 | – | 14.1 | 29.5

— patent US7598244B2, “[1,2,4]triazolo[1,5,a]pyrimidin-2-ylurea derivative and use thereof” (Nippon Kayaku Kabushiki Kaisha, priority 2003, dated 2009)
